Our source for the GI50 and TGI values is PubChem BioAssay (NCI).

Molecules are shown by their SMILES.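 Values below derive from 48-hour exposures of cells grown in 96-well plates, with endpoints linearly interpolated between the two concentrations bracketing the appropriate inhibition level. GI50 marks 50% less growth. TGI: concentration producing complete growth inhibition.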

Test systems include 786-0 renal; HL-60(TB) leukemia; K-562 leukemia; NCI-H226 lung; NCI-H522 lung; OVCAR-5 ovarian; PC-3 prostate; RXF 393 renal; SK-OV-3 ovarian; UO-31 renal.
Holding throughout (test): NCI-60 cell line screen, 48 h

As for `Cc1c(-c2ccc(N3CCc4cccc(C(=O)Nc5nc6ccccc6s5)c4C3)nc2C(=O)O)cnn1CC12CC3CC(CC(C3)C1)C2`, the GI50 is 3.65 µM with 786-0 renal; 3.43 µM with HL-60(TB) leukemia; 7.51 µM in the assay with K-562 leukemia; 13.7 µM in the assay with NCI-H226 lung; 10.8 µM with NCI-H522 lung; 11.4 µM with OVCAR-5 ovarian. Also, the GI50 was 1.42 µM with PC-3 prostate, 0.0853 µM with RXF 393 renal, 6.99 µM in the assay on SK-OV-3 ovarian and 2.6 µM in the assay on UO-31 renal. Moreover, the TGI with 786-0 renal was 12.4 µM; in the assay on HL-60(TB) leukemia it was 18.7 µM; with K-562 leukemia it was over 100 µM; in the assay with NCI-H226 lung, 50.6 µM; in the assay with NCI-H522 lung it was 28 µM; in the assay on OVCAR-5 ovarian it was 32.4 µM. In addition, the TGI was determined as 6.15 µM in the assay on PC-3 prostate, 4.61 µM in the assay on RXF 393 renal, 21.3 µM in the assay on SK-OV-3 ovarian and 9.36 µM in the assay on UO-31 renal.

For `O=C(NCc1cccnc1)c1ccc([N+](=O)[O-])o1`, the GI50 in the assay with 786-0 renal is 2.9 µM; in the assay with HL-60(TB) leukemia it was 8.44 µM; in the assay with K-562 leukemia, 2.06 µM; with NCI-H226 lung, 4.21 µM; in the assay with NCI-H522 lung, 0.141 µM; in the assay on OVCAR-5 ovarian, 5.64 µM. For the same molecule, the GI50 with PC-3 prostate was 2.52 µM; with RXF 393 renal, 1.15 µM; in the assay with SK-OV-3 ovarian, 4.13 µM; in the assay with UO-31 renal, 2.83 µM. In addition, the TGI is 16.6 µM in the assay on 786-0 renal; 25 µM in the assay on HL-60(TB) leukemia; over 32.5 µM in the assay on K-562 leukemia; 13.2 µM in the assay on NCI-H226 lung; 0.602 µM in the assay with NCI-H522 lung; 18 µM in the assay with OVCAR-5 ovarian. Further, the TGI is over 19.1 µM in the assay with PC-3 prostate, 5.12 µM with RXF 393 renal, 14.2 µM with SK-OV-3 ovarian and over 14.7 µM in the assay with UO-31 renal.

As to `Nc1ccc(N)c2c1C(=O)c1cccc([N+](=O)[O-])c1C2=O`, the GI50 with 786-0 renal is 2.72 µM; in the assay on HL-60(TB) leukemia it was 3.65 µM; in the assay with K-562 leukemia it was 5.45 µM; in the assay with NCI-H226 lung, 0.312 µM; in the assay on NCI-H522 lung, 1.46 µM; with OVCAR-5 ovarian it was 8.19 µM. The GI50 in the assay on PC-3 prostate was 15.6 µM; with RXF 393 renal it was 7.16 µM; in the assay with SK-OV-3 ovarian, 3.43 µM; in the assay with UO-31 renal, 2.68 µM. The TGI with 786-0 renal was 32.1 µM; in the assay on HL-60(TB) leukemia it was over 41.1 µM; in the assay on K-562 leukemia it was over 100 µM; with NCI-H522 lung, 17.9 µM; in the assay with OVCAR-5 ovarian, over 100 µM; in the assay on PC-3 prostate, over 100 µM. Moreover, the values for the TGI in the assay with RXF 393 renal, with SK-OV-3 ovarian and with UO-31 renal were 54.9 µM, over 100 µM and over 22.6 µM, respectively.

Consider `O=C(COC(=O)[C@H](C[Se][Se]C[C@H](NC(=O)c1ccc(Br)cc1F)C(=O)OCC(=O)c1ccc(F)cc1)NC(=O)c1ccc(Br)cc1F)c1ccc(F)cc1`, for which the GI50 in the assay with 786-0 renal is 0.9 µM; in the assay on HL-60(TB) leukemia, 0.425 µM; in the assay with K-562 leukemia it was 2.83 µM; with NCI-H226 lung, 1.02 µM; in the assay with NCI-H522 lung, 2.2 µM; in the assay on OVCAR-5 ovarian, 0.951 µM. The GI50 in the assay with PC-3 prostate is 0.375 µM; in the assay on RXF 393 renal, 0.422 µM; in the assay on SK-OV-3 ovarian, 0.415 µM; in the assay with UO-31 renal, 1.11 µM. In addition, the TGI in the assay with 786-0 renal was 2.23 µM; in the assay with HL-60(TB) leukemia, over 100 µM; in the assay on K-562 leukemia, over 26.4 µM; in the assay with NCI-H226 lung, 3.63 µM; in the assay on NCI-H522 lung it was 4.38 µM; with OVCAR-5 ovarian, 2.72 µM. In addition, the TGI in the assay on PC-3 prostate was found to be 1.38 µM; with RXF 393 renal, 1.5 µM; in the assay with SK-OV-3 ovarian, 1.31 µM; in the assay with UO-31 renal, 2.79 µM.

As to `CCn1c(SC)nnc1-c1cc2c([nH]c3ccccc32)c(-c2cccc(O)c2)n1`, the GI50 is 2.77 µM with 786-0 renal; 0.929 µM in the assay on HL-60(TB) leukemia; 0.547 µM with K-562 leukemia; 1.91 µM in the assay with NCI-H226 lung; 1.06 µM in the assay with NCI-H522 lung; 10 µM in the assay with OVCAR-5 ovarian. Also, the GI50 in the assay with PC-3 prostate was 2.83 µM; with RXF 393 renal, 1.14 µM; in the assay with SK-OV-3 ovarian it was 2.44 µM; in the assay with UO-31 renal it was 1.94 µM. The TGI was 10.9 µM in the assay on 786-0 renal; 7.86 µM with HL-60(TB) leukemia; over 100 µM in the assay with K-562 leukemia; 4.9 µM with NCI-H226 lung; 11.8 µM in the assay on NCI-H522 lung; 43.1 µM with OVCAR-5 ovarian. In addition, the TGI is over 100 µM with PC-3 prostate, 3.18 µM in the assay with RXF 393 renal, 6.3 µM in the assay with SK-OV-3 ovarian and 15.8 µM in the assay with UO-31 renal.

As to `COc1ccc(S(=O)(=O)NCCCNc2nccc(-c3c(-c4ccc(F)cc4)nc4sccn34)n2)cc1`, the GI50 is 5.83 µM with 786-0 renal; 7.51 µM in the assay with HL-60(TB) leukemia; 2.99 µM with K-562 leukemia; 6.06 µM with NCI-H226 lung; 5.02 µM with NCI-H522 lung; 32.7 µM with OVCAR-5 ovarian. Also, the GI50 with PC-3 prostate is 8.74 µM; in the assay with RXF 393 renal it was 3.36 µM; with SK-OV-3 ovarian it was 8.11 µM; in the assay with UO-31 renal, 3.83 µM. Further, the TGI in the assay on 786-0 renal, in the assay on HL-60(TB) leukemia, in the assay on K-562 leukemia, in the assay with NCI-H226 lung, in the assay on NCI-H522 lung and in the assay on OVCAR-5 ovarian was over 100 µM in each case. Also, the TGI is over 100 µM in the assay on PC-3 prostate, 76.7 µM in the assay on RXF 393 renal, over 100 µM with SK-OV-3 ovarian and over 100 µM in the assay with UO-31 renal.

For `CN1CCN(Cc2ccc(NC(=O)c3cncc(C#Cc4cnc5cccnn45)c3)cc2C(F)(F)F)CC1`, the GI50 in the assay on 786-0 renal is 1.14 µM; in the assay on HL-60(TB) leukemia it was 0.818 µM; with K-562 leukemia, 0.005 µM; in the assay on NCI-H226 lung it was 0.286 µM; in the assay on NCI-H522 lung, 0.99 µM; in the assay on OVCAR-5 ovarian, 1.27 µM. The GI50 is 1.44 µM with PC-3 prostate, 0.783 µM in the assay with RXF 393 renal, 1.67 µM in the assay on SK-OV-3 ovarian and 1.49 µM in the assay on UO-31 renal. Besides, the TGI with 786-0 renal came to 2.73 µM; with HL-60(TB) leukemia, 2.44 µM; with K-562 leukemia it was 21.6 µM; in the assay with NCI-H226 lung, 2.48 µM; in the assay with NCI-H522 lung it was 2.72 µM; in the assay on OVCAR-5 ovarian, 6.04 µM. Further, the TGI came out at 5.75 µM in the assay on PC-3 prostate, 1.71 µM in the assay on RXF 393 renal, 5.21 µM with SK-OV-3 ovarian and 3.78 µM with UO-31 renal.
